Test results published in patent US20250270170A1, “2,3-DIMETHOXY-5-METHYL-1,4-BENZOQUINONE ALKYL ALCOHOL DERIVATIVE AND USE THEREOF” (BEIJING ANJIANXI BIO-MEDICAL TECHNOLOGY CO., LTD., priority 2021, published 2025).

Columns and labels:
[1] = Example 8: serum UREA at the end of the assay; type: in vivo, nude mice; conditions: DDP 5 mg/kg i.p. QW×4
Source text: The assay animals, calculation of tumor volume (TV), end of assay, data recording, calculation formula of tumor growth inhibition rate TGI (%), and statistical analysis method were the same as those in Example 3; the preparation of the administration formulation of the compound of formula (I) was the same as that in Example 5. [table]

[2] = Example 7: body weight of NCI-N87 tumor-bearing nude mice; type: in vivo; conditions: DDP 4/2/1/4 mg/kg IP
[3] = Example 5: acute toxicity, single gavage administration; type: in vivo, ICR mice; conditions: both sexes, mouse, in vivo, po, ICR mice, single gavage administration
Protocol: (§1) Preparation of the administration formulation of the test sample: A mixture of the compound of formula (I) and ethanol/ethyl acetate (v/v, 1/3) with a ratio of 1:1.5 was dissolved by sonication at room temperature. 2.25 equivalents of compound of formula (I) of PVP were added, and the mixture was stirred vigorously at room temperature for 20 minutes. Then, 2 equivalents of the compound of formula (I) of lactose were added, and the mixture was stirred vigorously at room temperature for 20 minutes. The mixture was dried in an oven at 50° C. and then pulverized to give a yellow powder formulation of the compound of formula (I). Then, an appropriate amount of the formulation of compound of formula (I) was weighed, and an appropriate volume of 0.5% CMC-Na aqueous solution was added. The mixture was vortexed and sonicated to mix evenly (if necessary, shear emulsification may be performed), to give an administration formulation of the test sample. The administration formulation was prepared twice a week, and 3 or 4 days of dosage was prepared each time, which was divided and stored in a 0-8° C. refrigerator for later use. When the test sample was used, a final volume mark was marked on a container, and a required amount of the test sample was weighed (weighing weight of the test sample=theoretical dosage*conversion factor) into a clean and dry container. An appropriate amount of solvent was firstly added, and the mixture was stirred and mixed thoroughly, and sonicated if necessary. The solvent was further added to the final volume mark to dilute and mix evenly, to give a visually uniform formulation. […] The administration formulation of the test sample was stable within 24 hours when being stored airtightly at room temperature in dark, and was stable within 8 days when being stored airtightly at 2° C. to 8° C. in dark.
(§2) • Species: ICR mice • Grade: SPF grade
(§3) Number and gender of the animals being used: 40, half male and half female;
(§4) Body weight: The body weight of the female group was from 25.9 to 29.7 g; the body weight of the male group was from 27.7 to 30.8 g;
(§5) Age at the time of administration: 38 to 44 days (female), 31 to 44 days (male)
(§6) Route of Administration: Gavage Administration
(§7) Administration frequency: once/day
(§8) Administration period: 1 day
(§9) The dosage was calculated based on the body weight of the animals weighed on D1 after fasting (with water access) overnight. The feed was given approximately 2 hours after drug administration.
(§10) The administration formulation in each group was stirred at room temperature for at least 10 minutes, and suspended uniformly with visual inspection before the administration. The administration formulation was required to be continually stirred during the administration.
(§11) Observation indicators: observation of general physical signs, body weight, food intake, animal anatomy and histopathological examination were included.

[4] = tested on: ICR mice; assay: as above; type: in vivo
Protocol: as §1, §2, §3, §4, §5, §6, §7, §8, §9, §10, §11

[5] = tested on: NCI-H460 cells; assay: Flow cytometry for cell cycle detection, NCI-H460; type: cell-based, human
Protocol: (1) Cells were inoculated in a 6-well plate. When about 50% of the cells were adherent and fused, the compound of formula (I) at a concentration of 0 μM, 10 μM, 30 μM, and 90 μM were added, respectively. The plate was placed in an incubator at 37° C. with 5% CO2 to continue culturing, and three time points were set, which were 24 h, 48 h and 72 h, respectively.
(2) After reaching the designated time point, the cell culture plate was taken out from the incubator, and placed in a biological safety cabinet. A 4 ml centrifuge tube was taken and marked. The supernatant in each well was pipetted out and added to the corresponding 4 ml centrifuge tube. The cells were gently washed with PBS, and the PBS was added to the corresponding centrifuge tube. An appropriate amount of trypsin was added to each well to digest the cells. When the cells were digested to a moderate degree, the old culture medium from the centrifuge tube was added to the corresponding well. The cells were gently pipetted with apipette to form a single-cell suspension, which was pipetted back into the original centrifuge tube. The tube was immediately centrifuged at 1500 rpm for 5 minutes. Then, the supernatant was discarded and the precipitate was retained.
(3) 2 ml of pre-chilled PBS was added to the centrifuge tube, and centrifuged again at 1500 rpm for 5 minutes. The supernatant was discarded, and the cell debris was removed.
(4) 1 ml of 75% ethanol was added while pipetting the cells, to make the cells appear as single as possible. Then, the cells were fixed at 4° C. overnight or stored at −20° C. for long-term storage (can be stored for 1 week).
(5) The fixed cells were taken out, and centrifuged at 1000 rpm for 5 minutes. The ethanol was discarded, and pre-chilled PBS was added to wash the cells. Then, the cells were centrifuged at 1000 rpm for 5 min to remove the residual ethanol on the cells.
(6) A cell cycle detection kit from Wuhan Promoter Biology Co., Ltd. was used. 100 μl of RNaseA was added, and incubated in a 37° C. water bath for 30 minutes.
(7) 400 μl of PI was added and mixed well, and incubated at 4° C. in dark for 30 minutes.
(8) The cell cycle was detected by upflow cytometry.

SMILES: N.N.[Cl][Pt][Cl] [DDP, cisplatin]
- Serum UREA Mean ± SE [1]: 13.43 ± 1.04 mmol/L
- Animal body weight ([2]; D12): 18.6 ± 0.5 g
- Animal body weight ([2]; D16): 17.9 ± 0.3 g
- body weight loss rate ([2]; D16): 3.9%
- Animal body weight ([2]; D19): 18.0 ± 0.4 g
- body weight loss rate ([2]; D19): 3.3%
- Animal body weight ([2]; D23): 16.9 ± 0.5 g
- body weight loss rate ([2]; D23): 9.2%
- Animal body weight ([2]; D26): 17.9 ± 0.5 g
- body weight loss rate ([2]; D26): 3.4%
- Animal body weight ([2]; D30): 17.5 ± 0.3 g
- body weight loss rate ([2]; D30): 6.0%
- Animal body weight ([2]; D33): 18.6 ± 0.4 g
- body weight loss rate ([2]; D33): 0.090%
- Animal body weight ([2]; D37): 18.9 ± 0.4 g
- body weight loss rate ([2]; D37): −2.0%
- Animal body weight ([2]; D40): 19.2 ± 0.4 g
- body weight loss rate ([2]; D40): −3.1%
- Animal body weight ([2]; D44): 18.3 ± 0.3 g
- body weight loss rate ([2]; D44): 1.4%

SMILES: COC1=C(OC)C(=O)C(CCCCCCCCCCOC(=O)Cc2c(C)n(C(=O)c3ccc(Cl)cc3)c3ccc(OC)cc23)=C(C)C1=O [compound of formula (I)]
- LD50 at 1 day [3]: > 3000 mg/kg
- MTD at 1 day ([3]; read-out: maximum tolerated dose (MTD)): 300 mg/kg/day
- clinical observation (general physical signs) ([4]; 300 mg/kg/d single gavage): no obvious abnormal symptoms
- clinical observation (general physical signs) ([4]; 1000 mg/kg/d single gavage, animals other than the dead one): No obvious abnormal symptoms
- body weight of male animals ([4]; 3000 mg/kg/d single gavage, D3, vs vehicle control (P<0.05)): significant decrease
- clinical observation (general physical signs) ([4]; 3000 mg/kg/d single gavage, return to normal on D8): piloerection symptoms from D2 to D7
- food intake ([4]; each dosage group (300, 1000, 3000 mg/kg/d) vs vehicle control): basically consistent
- gross anatomy examination ([4]; each group, naked eye observation of organs and tissues): No obvious abnormalities
- proportion of S phase cells ([5]; 10 μM, 24 h): 26.03%
- proportion of S phase cells ([5]; 10 μM, 48 h): 29.62%
- proportion of S phase cells ([5]; 10 μM, 72 h): 21.61%
- proportion of S phase cells ([5]; 30 μM, 24 h): 13.15%
- proportion of S phase cells ([5]; 30 μM, 48 h): 16.02%
- proportion of S phase cells ([5]; 30 μM, 72 h): 20.98%
- proportion of S phase cells ([5]; 90 μM, 24 h): 9.76%
- proportion of S phase cells ([5]; 90 μM, 48 h): 0.97%
- proportion of S phase cells ([5]; 90 μM, 72 h): 3.36%
